# Read-outs that look alike come from different tables or passages of the source.
# Assays:
# [1] = tested on: B-cells isolated from individuals with autoimmune disease; test: MTT cell viability, sphingomyelin enhancement of chemotherapy on B-cells (Example 5); type: cell-based, human
# Description: (§1) Sphingomyelin enhancement of chemotherapy is evaluated by measuring its effect on 5-fluorouracil or doxorubicin (DOX) treatment of B-cells isolated from individuals with autoimmune disease and grown in culture. Cell viability is measured using the dye MTT (3-(4,5-dimethylthiazol-2-yl)-2,5-diphenyl tetrazolium bromide) in a 24-well chamber format. See Mosmann, T., J. Immunol. Methods, 65:55-63 (1983). B-cells are maintained in RPMI media supplemented with 10% fetal calf serum. Human umbilical cord venous endothelial cells (HUVEC) from pooled donors (Clonetics/BioWhittaker, San Diego, Calif.) are used as controls. Cells (10^4/well) are plated in the presence of varying concentrations of drug and sphingomyelin and grown in a humidified incubator. As an additional control, egg yolk phosphatidylcholine (PC) (Sigma, St. Louis, Mo.) is added to the cells instead of sphingomyelin. Drugs and lipids are added to HUVEC cells 24 hours after plating, but otherwise are treated the same. After four days, the media is replaced with media containing 0.5 mg/ml MTT and incubated two to four hours at 37° C. An equal volume of 0.04 N HCl in isopropanol is added, and the absorbance at 570 nm is measured. The IC50 values, defined as the concentration of drug necessary to reduce cell viability by 50%, from three to seven independent experiments are averaged and compared using ANOVA.
# [2] = tested on: Primary Sjogren's Syndrome (pSS); test: Therapy of primary Sjogren's syndrome with rituximab combined with sphingomyelin (Example 4); type: in vivo, human
# Description: They then receive a course of rituximab (Rituxan, Genentech) at 600 mg infused over 6 hours every other week for 3 doses, combined with weekly infusions of sphingomyelin at doses of 400 mg for 6 weeks. During this therapy, only 15 mg prednisolone is continued as a maintenance therapy. After the first rituximab infusion, their circulating B-cells are measured to be depleted by 90%, which continues for about 8 months. Their main subjective symptoms of dry mouth and eyes show improvement, as well as their parotid gland reduction is noted, and also an improvement in their dry cough and purpura. An improvement of the objective parameters of dry eyes and dry mouth is also observed, and this improvement is maintained for at least 3 months after this therapy course. The combination of sphingomyelin with apoptosis-inducing agent is shown to be synergistic for treatment of pSS.
# rheumatoid arthritis [3] = test: Therapy of rheumatoid arthritis with adalimumab combined with sphingomyelin (Example 3); type: in vivo, human
# Description: A person with 3 healthy children presents with a history of rheumatoid arthritis (RA) for 9 years, and a prior therapy history of methotrexate, leflunomide, prednisolone, sometimes in combination. They continue on their methotrexate (10 mg) and prednisolone (10 mg) daily doses, and is now given the TNF antagonist, adalimumab (Humira, Abbott Laboratories) subcutaneously at 40 mg every other week, combined with weekly infusions of sphingomyelin at a dose of 400 mg. This therapy is continued for 12 weeks, and they are evaluated for response every 4 weeks after completion of their course of therapy by ACR 20%, 50% and 70% scoring, and EULAR responses.
# [4] = tested on: chronic idiopathic thrombocytopenia purpura; test: Treatment of a patient with chronic idiopathic thrombocytopenia purpura (Example 6); type: in vivo, human
# Description: A person with chronic idiopathic thrombocytopenia purpura has been treated with gamma globulins and high-dose dexamethasone, but the disease progresses. They undergo splenectomy, which fails to stabilize the disease. Their platelet count falls to less than 20,000/microliter, and hemorrhagic events increase in frequency. The patient is then treated with epratuzumab, 480 mg intravenously each week, plus 400 mg/wk of sphingomyelin, for a period of six weeks. Four weeks after the last dose of epratuzumab and sphingomyelin, platelet number is increased by 300%, and the hemorrhagic events disappear.
# myasthenia gravis = test: Treatment of a patient with myasthenia gravis, epratuzumab plus sphingomyelin (Example 8); type: in vivo, human
# Description: A person has failed all conventional therapy for myasthenia gravis, and is admitted to a neurological intensive therapy unit. The patient is stabilized by plasma exchange, and is given intravenous immunoglobulin to reduce the titer of anti-acetylcholine receptor antibody. The patient remains bedridden, and is then treated with epratuzumab, 600 mg intravenously each week, plus 400 mg/wk of sphingomyelin, for a period of six weeks. […] Two months after the last treatment the patient is mobile, and is released from the hospital.
# [5] = tested on: Systemic Lupus Erythematosus (SLE); test: Therapy of systemic lupus erythematosus with sphingomyelin, epratuzumab and prednisolone (Example 2); type: in vivo, human
# From the text: patient two is a person with two healthy children, and with a history of SLE for at least 8 years. They have received prior cyclophosphamide, azathioprine, and corticosteroid treatments, with recurrent activity flares resulting in increasing disability. They have had evidence of myelosuppression, with lymphopenia, resulting in tapering of their medications. Prior to receiving the current experimental therapy, they are confirmed to have a diagnosis of SLE according to the American College of Rheumatology revised criteria, and moderately active disease (a score of 10 for total British Isles Lupus Assessment Group (BILAG) disease activity) at study entry. Their current medication of prednisolone, 15 mg/day, is continued, and they receive epratuzumab (anti-CD22 humanized monoclonal antibody) i.v. at 360 mg/m^2 once weekly every other week for a total of 4 infusions. Prior to each infusion, they are medicated with acetaminophen (Tylenol) and antihistamine (Benadryl). They are also given an infusion of 300 mg sphingomyelin twice weekly for 8 weeks. Two and 6 weeks after completion of this therapy, they are evaluated, and it is decided that their prednisolone doses of 15 mg/day can be tapered to 10 mg/day, because of initial evidence of improvement of their BILAG scores in 3 of the 8 body systems. Four weeks later, the SLE panel of tests (autoantibodies, C3, C-reactive protein, erythrocyte sedimentation rate), and physical examination indicate progressive improvement, with less fatigue, lethargy, malaise, anorexia, reduction of malar erythemia, and reduction of arthritis. They are considered to have about a 40% improvement of their condition as a result of the investigational therapy.
# [6] = tested on: progressive rheumatoid arthritis; type: in vivo, human
# From the text: A person, with severe progressive rheumatoid arthritis of the finger joints, wrists, and elbows, has failed therapy with methotrexate, and obtains only minor relief when placed on Enbrel therapy.
# rheumatoid arthritis [7] = test: Therapy of rheumatoid arthritis with sphingomyelin, patient one (Example 1); type: in vivo, human
# Description: Various forms of sphingomyelin can be obtained in powder form from Sigma Chemicals (St. Louis, Mo.). Mix 1 g of sphingomyelin powder with 9.5 ml of sterile saline or phosphate buffered saline (PBS) and QS to 10 ml. Sonicate the resulting suspension in a water bath at 80-90° C. for 1 hour. The suspension should be administered within one hour of sonication and should be approximately room temperature (25-30° C.). The suspension can be stored at 4° C.; however, it should be re-sonicated for 30 minutes in a water bath at 80-90° C. before administration. […] They have a history of rheumatoid arthritis (RA) that presented about 5 years ago, and has undergone numerous treatments with corticosteroids, cyclophosphamide, and methotrexate, with responses of reduced durations and then relapses. They now present to their rheumatologist with active RA as judged by the presence of 5 tender and 4 swollen joints (out of 44 examined), morning stiffness for more than 45 minutes, an elevated erythrocyte sedimentation rate (ESR) of 40 mm/h (Westergren method), and an elevated C-reactive protein (CRP) blood level of 80 mg/L, as well as increased levels of rheumatoid factor (RF) of IgM, IgG, and IgA isotypes. All other laboratory tests, except circulating red blood cells (mild anemia), are within the normal range. They have been taking a nonsteroidal anti-inflammatory drug (NSAID; ibuprofen), 20 mg/day of prednisolone, and doses of cyclophosphamide i.v. (750 mg). The patient is allowed to continue on these medications, and is also given i.v. infusions of sphingomyelin (prepared as described above) in phosphate-buffered sterile saline and QS twice weekly at doses of 400 mg, continuing for 3 weeks. […] The patient is considered to have improved upon adding sphingomyelin i.v. therapy to their prior medications, to which they relapsed. Subsequently, they have their prednisolone maintenance therapy tapered to 5 mg daily with 200 mg sphingomyelin given 3 times weekly for 8 weeks, and is able to function as before without any deterioration of their condition, with increase in their physical activities and general reduction in joint pain and swelling.
# [8] = tested on: Human umbilical cord venous endothelial cells (HUVEC); test: MTT cell viability, control HUVEC cells (Example 5); type: cell-based
# Description: as §1
# [9] = B-cells, MTT after four days, from IC50 values of drug
substance,measurement,setting,value
"phosphatidylcholine [PC, reference compound]","enhancement of chemosensitivity (5FU, DOX)",[1]; lipid control added to the cells instead of sphingomyelin,does not elicit a similar effect
"rituximab: Rituximab (Rituxan, anti-CD20) antibody [reference compound]",depletion of circulating B-cells,"[2]; after the first rituximab infusion (600 mg), combined with weekly sphingomyelin 400 mg",90%
same,duration of circulating B-cell depletion,[2]; rituximab 600 mg every other week x3 + sphingomyelin 400 mg weekly for 6 weeks,about 8 months
sphingomyelin,increase of 5FU sensitivity,[1]; [9],140%
same,increase of DOX sensitivity,[1]; [9],340%
same,overall response,"rheumatoid arthritis [3]; 6-month evaluation, anti-TNF therapy combined with sphingomyelin",good response
same,ACR response,"rheumatoid arthritis [3]; end of 12-week course, sphingomyelin 400 mg weekly + adalimumab 40 mg s.c. every other week + methotrexate, prednisolone",ACR50 improvement
same,EULAR response,"rheumatoid arthritis [3]; end of 12-week course, sphingomyelin + adalimumab + methotrexate, prednisolone",moderate EURAR response
same,tolerability of therapy,"rheumatoid arthritis [3]; sphingomyelin 400 mg weekly + adalimumab, 12 weeks",tolerated well
same,hemorrhagic events,[4]; four weeks after last dose of epratuzumab and sphingomyelin,disappear
same,increase of platelet number,"[4]; four weeks after last dose, epratuzumab 480 mg i.v. weekly + sphingomyelin 400 mg/wk for six weeks",300%
same,disease status,[4]; three months after the last treatment,full remission
same,drop in B-lymphocytes,"myasthenia gravis; one week after last treatment, epratuzumab 600 mg i.v. weekly + sphingomyelin 400 mg/wk for six weeks",50%
same,titer of the anti-acetylcholine (receptor antibody),"myasthenia gravis; one week after last treatment, epratuzumab + sphingomyelin",significant drop
same,clinical status,myasthenia gravis; two months after the last treatment,mobile
same,"improvement of BILAG scores, number of body systems",[5]; 2 and 6 weeks after sphingomyelin 300 mg twice weekly for 8 weeks + epratuzumab 360 mg/m^2 x4 + prednisolone 15 mg/day,3 of the 8 body systems
same,improvement of condition,"[5]; four weeks later, sphingomyelin + epratuzumab + prednisolone",~40%
same,combination effect with prednisolone and epratuzumab,[5]; more effective than either agent alone,synergistic effect
same,duration of improvement after therapy course,[2]; rituximab + sphingomyelin,at least 3 months
same,objective parameters of dry eyes and dry mouth,"[2]; rituximab + sphingomyelin 400 mg weekly for 6 weeks, prednisolone 15 mg maintenance",improvement
same,combination effect with apoptosis-inducing agent,[2]; sphingomyelin with rituximab,synergistic
same,improvement in measures of disease activity,[6]; 6 months after the second therapy with veltuzumab and sphingomyelin,70%
same,improvement in measures of disease activity,"[6]; after 3 weeks, veltuzumab 80 mg i.v. weekly + sphingomyelin 400 mg/wk for eight weeks",30%
same,duration for which the improvement is maintained,[6]; after first course of veltuzumab + sphingomyelin,6 months
same,normal B-cells in the blood,[6]; veltuzumab + sphingomyelin,significantly reduced
same,"ESR, CRP and RF factor levels above the normal range","rheumatoid arthritis [7]; 4 and 6 months after onset, therapy of prednisolone, NSAID and sphingomyelin repeated at 3 months",about 20%
same,reduction of joint stiffness and swelling compared to baseline,"rheumatoid arthritis [7]; 4 and 6 months after onset, therapy repeated at 3 months",about 50%
same,improvement in the ACR20 score,"rheumatoid arthritis [7]; 4 and 6 weeks after sphingomyelin 400 mg i.v. twice weekly for 3 weeks, added to ibuprofen, prednisolone, cyclophosphamide",20%
same,"improvement in the elevated CRP, RF and ESR levels","rheumatoid arthritis [7]; 4 and 6 weeks after sphingomyelin 400 mg i.v. twice weekly for 3 weeks, added to prior medications",about 50%
same,joint stiffness in the morning,"rheumatoid arthritis [7]; 4 and 6 weeks later, baseline more than 45 minutes",less than 15 minutes
same,combination effect with standard anti-rheumatoid therapeutic agents,rheumatoid arthritis [7]; compared with either sphingomyelin or standard agents alone,more than additive effect
same,sensitization to 5FU or DOX therapy,[8],does not sensitize
veltuzumab: anti-CD20 humanized Mab,human anti-veltuzumab antibodies,"[6]; human, in vivo",No human anti-veltuzumab antibodies are observed

# — patent US7683044B2, “Sphingomyelin therapy of autoimmune disease” (Center for Molecular Medicine and Immunology, priority 1999, dated 2010)
